“And” between values parts separate entries of the source, which are not always exact repeats. Equal entries are not always repeated.
Columns and labels:
[1] = tested on: Human Breast Cancer Xenografts (MDA-MB-468); test: 5-FU/HA adjuvant therapy efficacy, 6-month study; format: in vivo
Protocol: (§1) One of the most commonly used treatment regimens for human breast cancer is cyclophosphamide, methotrexate and 5-fluorouacil which is administered on day 1 and 8 of a 28 day cycle. In human breast cancer the initial treatment regimen is for 6 cycles at which time the patient condition is re-assessed, therefore we tried to simulate the human treatment regimen as closely as possible by exposing the mice to 6 cycles (6 months) of treatment in a long term efficacy study and a 6 cycles (6 week) short term efficacy study. Considering the life cycle of a mouse is approximately 2 years we commenced both short-term and long-term treatment protocols as shown in Table 8.
(§2) Mice were randomly divided into 7 groups of 8 animals per group for the short term study and 5 groups of 8 animals for the long term study (refer to Table 8 for dosage and treatment administration schedule).
(§3) Animals were weighed and tumour volumes measured on the day of treatment application for long term study as described in Example 8. In the 6-week study animals were weighed and tumour volumes measured on a daily basis. […] It has been experimentally proven that stress can be a major factor in a patients response to chemotherapy (Shackney et al, 1978), therefore we ensured that equal numbers of mice were allocated to each cage, the animal number per cage varied from 5-8 depending on the stage of experimentation.
(§4) The experimental end-point occurred when the animal had to be euthanised due to degree of disease progression or when the 6 month (long term) or 6 week (short term) treatment regimen was completed. Due to the animal ethics guidelines the animals were monitored fortnightly by an independent animal ethics officer who assessed the degree of disease progression.
The TDT is the time taken (days) for a tumour to double in mass or cell number, a parameter of tumour growth which is simple to measure and can be easily related to clinical tumour behaviour in conceptional terms (Shackney et al, 1978). By monitoring the tumour doubling time it is often possible to evaluate tumour chemotherapeutic response, as slowly growing tumours tend to respond poorly to chemotherapy (Schabel, 1975).
The overall patient survival time was calculated as the time (days or weeks) that the animal lived after the commencement of treatment.

[2] = 1H NMR titration and diffusion experiments of 5-FU with HA; format: physicochemical; conditions: 600 MHz 1H NMR titration; HA 750 kDa, 3 mg/mL; pH 8.8 to 9.1
Protocol: To further investigate the nature of the interaction between HA and chemotherapeutic drugs 1H Nuclear Magnetic Resonance (NMR) spectroscopy was used. Deuterium oxide (^2H2O (99.96%)) was obtained from Cambridge Isotope Laboratories. MTX was obtained from Faulding Pharmaceuticals and 5-FU and HA stock solutions were prepared as described previously.
Spectra were recorded at 298 K on a Brüker DRX spectrometer operating at 600 MHz with a shielded gradient unit. The 2D experiments were recorded in phase-sensitive mode using time-proportional phase incrementation for quadrature detection in the t1 dimension (Marion & Wüthrich, 1983). The 2D experiments included TOCSY sequence using a MLEV-17 spin lock sequence (Bax & Davis, 1985) with a mixing time of 120 ms; NOESY (Kumar et al., 1980) with mixing times of 250 and 400 ms and ROESY spectrum with a mixing time of 250 ms. Temperature calibration of the probe was achieved by comparison to ethylene glycol chemical shifts. All chemical shifts (ppm) were referenced to the methyl resonance of 4,4-dimethyl-4-silapentane-1-sulfonate (DSS, 0 ppm).
NMR diffusion experiments were acquired on a Brüker AMX spectrometer equipped with a gradient control unit operating at 500 MHz. All experiments were acquired with 16 or 64 scans at 298 K over 16K of data points and 7575 Hz. A gradient strength of 15.44 G/cm was employed for the diffusion experiments. […]

MDA-MB-468 = test: Drug cytotoxicity assay (cell count after 4 days in test media), MDA-MB-468; format: cell-based; conditions: Homo sapiens, 96 h, 5-FU alone
Protocol: A stock of HA solution (10 μM, 7 mg/ml) was prepared by dissolving desiccated HA (modal Mr 7×10^5 Da,) in 0.9% w/v pyrogen-free injection grade NaCl. To ensure a homogenous solution the HA was dissolved overnight at 4° C. followed by thorough vortexing. To ensure that ‘the HA had maintained its molecular weight during the preparation of the stock solution, the solution was analysed on a Sephacryl S-1000 size exclusion gel with column −40 specifications of 1.6 cm×70 cm, sample size 2 ml, flow rate 18.1/h and 2 ml fraction size. The HA was used at a final concentration of 1000 nm, with all dilutions made in the appropriate growth medium.
Based on these plasma concentrations in vivo the following drug concentrations were selected; 0, 1, 5, 10, 20, 50, 100 μM 5-FU±100 nM HA. […] When the cultures reached confluence the cells were removed from the flasks in 0.25% trypsin/0.05% EDTA. The single-cell suspension was counted with a Coulter counter (ZM1 model) and cells were resuspended to 100,000 cells/ml in cell-specific media. Cells were plated into 24-well plates (2 cm^2 surface area) by adding 0.5 ml of cell suspension per well, resulting in 50,000 cells/well. […] After 4 days of growth in test media the cultures were washed with HBSS, the cells removed from the well by trypsinisation with 0.25% trypsin/0.05% EDTA and cells were counted with a Coulter Counter.

[3] = iv 10.5 mg/kg (400 mg/m^2), within 30 min; cited from earlier work
[4] = tested on: Human Breast Cancer Xenografts (MDA-MB-468); test: 5-FU/HA adjuvant therapy efficacy, 6-week study; format: in vivo
Protocol: as §1, §2, §3, §4
The tissue was fixed for 16-24 h before histological processing. Fixed tissue was dehydrated stepwise to 100% ethanol and embedded in paraffin blocks from which 2-4 μm sections were placed on glass microscope slides. Staining the tissue sections with a haematoxylin nuclear stain and eosin cytoplasmic stain highlighted any pathological features that could indicate treatment toxicity.
Nine to 11 lymph nodes were collected per animal, ensuring that all nodes which drained the tumour area were collected. There are currently two methods used for the detection of lymph node metastasis:
The haematoxylin and eosin stained lymph nodes were examined by Dr P. Allen (certified pathologist) where each node was microscopically examined for the presence of tumour cells. The CEA immunostained lymph nodes were microscopically examined, where any positively stained nodes were counted and considered positive for lymph node metastasis.
Tumour volume was monitored on a daily or weekly basis by calliper measurements and tumour volume calculated as previously described in example 8.
One of the most common toxic effects of 5-FU is on the gastro-intestinal tract where haemorrhagic enteritis and intestinal perforation can occur (Martindale, 1993). Animals were monitored daily for GI tract upset such as diarrhoea and weekly for more severe toxicity manifestations such as weight loss. Weight loss was monitored by calculating net body weight as estimated by subtracting tumour weight, which was calculated as 1 g×tumour volume (cm^3) as cited in Shibamoto et al, 1996.

[5] = in vivo; cited from earlier work
[6] = 1H NMR deuterium exchange and transferred NOESY of MTX with HA; format: physicochemical
Text: Solvent suppression of the water signal for NOESY, ROESY and TOCSY experiments was achieved using a modified WATERGATE sequence (Piotto et al., 1992) in which two gradient pulses of 1 ms was applied on either side of a binomial 3-9-19 pulse. Spectra was routinely acquired over 6024 Hz with 4096 complex data points in F2 and 512 increments in the F1 dimension, with 32 scans per increment for the TOCSY experiments and 80 scans for the NOESY. Slowly exchanging NH protons were detected by acquiring a series of one-dimensional (1D) spectra acquired over 16K data points and with 32 scans. […]

[7] = tested on: murine Lewis lung xenografts; conditions: low dose of 0.01 mg/kg; cited from earlier work
[8] = control schedule HA D1,3 / 5-FU D 2, 4 of 7 day cycle

In the case of `O=c1[nH]cc(F)c(=O)[nH]1` [5-FU, 5-fluorouracil], the “Experimental endpoint: immobilsed” value ([1]; 6-month study, % of animals) is reported as 62.5% immobilsed, the “mice experiencing a cure (tumours fully necrosed and dropped off)” value ([1]; 6-month study, after approximately 12 weeks of treatment) is reported as “did not experience a “cure”” and the “TDT Mean ± SEM” value ([1]; 6-month study, days 1 & 8 of 28 day cycle (HA followed by 5-FU: days 1, 2, 8, 9)) is reported as 22.7 ± 2.9 days. For the same compound, the “Experimental endpoint: metabolic stress” value ([1]; mouse, in vivo) was 37.5% metabolic, the “interaction of 5-FU with HA (chemical shift of CH peak)” value [2] was “does not appear to be interacting” and the IC50 (MDA-MB-468) was over 50 µM. For the same compound, the peak plasma level [3] was 8 μg/ml and 61 μM, the “primary tumour at end of the 6 week study compared with the saline group” value [4] was “significantly smaller tumours” and the “Number of animal completing treatment” value [4, 8] was 8/8. For the same compound, the “TDT Mean ± SEM” value [4, 8] was 15.3 ± 2.5 days, the “% of animals with lymph node metastasis” value ([4]; days 1 & 2 of 7 day cycle) was 100% and the “% of lymph node involved per animal mean ± SEM” value ([4]; days 1 & 2 of 7 day cycle) was 14.3 ± 2.9%. The “Number of new tumours” value ([4]; days 1 & 2 of 7 day cycle) was 1, the “Number of animal completing treatment” value ([4]; days 1 & 2 of 7 day cycle (HA followed by 5-FU: days 1-4)) was 8/8 and the “TDT Mean ± SEM” value ([4]; days 1 & 2 of 7 day cycle (HA followed by 5-FU: days 1-4), 30 mg/kg 5-FU, 12.5 mg/kg HA) was 32.1 ± 3.5 days. The cure rate [5] was 26%.

With `CN(Cc1cnc2nc(N)nc(N)c2n1)c1ccc(C(=O)N[C@@H](CCC(=O)O)C(=O)O)cc1` [MTX, methotrexate] the “time for all amine hydrogens of MTX to exchange with deuterium” value ([6]; MTX and HA in 0.5% w/v Na2CO3 (pH 9), deuterium oxide added) was at most 4 min and the “interaction between MTX and HA (transferred NOESY)” value ([6]; MTX/HA, no crosspeaks) was “negligible interaction”.

For `CO[C@@]12[C@H](COC(N)=O)C3=C(C(=O)C(C)=C(N)C3=O)N1C[C@@H]1N[C@@H]12` [mitomycin C], the anti-tumour activity [7] is listed as “did not demonstrate anti-tumour activity”.

Source: patent publication US8741970B2, “Composition and method for the enhancement of the efficacy of drugs” (Alchemia Oncology Pty Limited, priority 1999, dated 2014)
